{
  "source": "ChEMBL document CHEMBL1123781",
  "about": "“Synthesis and biological properties of some 6H-pyrido[4,3-b]carbazoles” (1987)",
  "key": {"P388 [1]": {"system": "P388", "experiment": "Activity against P388 lymphocytic leukemia in BDFR-1 mice measured as median survival time (MST) after intraperitoneal administration of 10 mg/kg", "format": "functional, Mus musculus"}, "HeLa [2]": {"system": "HeLa", "experiment": "Effect on [3H]thymidine incorporation by HeLa cells measured as percent incorporation compared to control in the presence of drug at a concentration of 25 ug/mL", "format": "functional, Homo sapiens"}, "P388 [3]": {"system": "P388", "experiment": "Activity against P388 lymphocytic leukemia in BDFR-1 mice measured as percent increase in lifespan (% ILS) relative to controls after intraperitoneal administration of 5 mg/kg", "format": "functional", "conditions": "Mus musculus, P388, ip"}, "HeLa [4]": {"system": "HeLa", "experiment": "Effect on [3H]-Thymidine incorporation by HeLa cells measured as percent incorporation compared to control in the presence of drug at a concentration of 5 ug/mL", "format": "functional, Homo sapiens"}, "HeLa [5]": {"system": "HeLa", "experiment": "Effect on [3H]-Thymidine incorporation by HeLa cells measured as percent incorporation compared to control in the presence of drug at a concentration of 10 ug/mL", "format": "functional, Homo sapiens"}, "HeLa [6]": {"system": "HeLa", "experiment": "Effect on [3H]-Thymidine incorporation by HeLa cells measured as percent incorporation compared to control 3 hr after washing at a concentration of 10 ug/mL", "format": "functional, Homo sapiens"}, "P388 [7]": {"system": "P388", "experiment": "Activity against P388 lymphocytic leukemia in BDFR-1 mice measured as median survival time (MST) after intraperitoneal administration of 5 mg/kg", "format": "functional, Mus musculus"}, "P388 [8]": {"system": "P388", "experiment": "Activity against P388 lymphocytic leukemia in BDFR-1 mice measured as median survival time (MST) after intraperitoneal administration of 20 mg/kg", "format": "functional, Mus musculus"}, "HeLa [9]": {"system": "HeLa", "experiment": "Effect on [3H]-Thymidine incorporation by HeLa cells measured as percent incorporation compared to control 3 hr after washing at a concentration of 25 ug/mL", "format": "functional, Homo sapiens"}, "P388 [10]": {"system": "P388", "experiment": "Activity against P388 lymphocytic leukemia in BDFR-1 mice measured as percent increase in lifespan (% ILS) relative to controls after intraperitoneal administration of 10 mg/kg", "format": "functional", "conditions": "Mus musculus, P388, ip"}, "P388 [11]": {"system": "P388", "experiment": "Activity against P388 lymphocytic leukemia in BDFR-1 mice measured as percent increase in lifespan (% ILS) relative to controls after intraperitoneal administration of 20 mg/kg", "format": "functional", "conditions": "Mus musculus, P388, ip"}, "P388 [12]": {"system": "P388", "experiment": "Activity against P388 lymphocytic leukemia in BDFR-1 mice measured as median survival time (MST) after intraperitoneal administration of 40 mg/kg", "format": "functional, Mus musculus"}, "P388 [13]": {"system": "P388", "experiment": "Activity against P388 lymphocytic leukemia in BDFR-1 mice measured as percent increase in lifespan (% ILS) relative to controls after intraperitoneal administration of 40 mg/kg", "format": "functional", "conditions": "Mus musculus, P388, ip"}, "HeLa [14]": {"system": "HeLa", "experiment": "Effect on [3H]thymidine incorporation by HeLa cells measured as percent incorporation compared to control 3 h after washing at a concentration of 5 ug/mL", "format": "functional, Homo sapiens"}, "P388 [15]": {"system": "P388", "experiment": "Activity against P388 lymphocytic leukemia in BDFR-1 mice measured as percent increase in lifespan (% ILS) relative to controls after intraperitoneal administration of 80 mg/kg", "format": "functional", "conditions": "Mus musculus, P388, ip"}, "HeLa [16]": {"system": "HeLa", "experiment": "Effect on [3H]thymidine incorporation by HeLa cells measured as percent incorporation compared to control 3 h after washing at a concentration of 25 ug/mL", "format": "functional, Homo sapiens"}, "HeLa [17]": {"system": "HeLa", "experiment": "Effect on [3H]thymidine incorporation by HeLa cells measured as percent incorporation compared to control in the presence of drug at a concentration of 5 ug/mL", "format": "functional, Homo sapiens"}, "HeLa [18]": {"system": "HeLa", "experiment": "Effect on [3H]-Thymidine incorporation by HeLa cells measured as percent incorporation compared to control 3 hr after washing at a concentration of 5 ug/mL", "format": "functional, Homo sapiens"}, "P388 [19]": {"system": "P388", "experiment": "Activity against P388 lymphocytic leukemia in BDFR-1 mice measured as median survival time (MST) after intraperitoneal administration of 80 mg/kg", "format": "functional, Mus musculus"}, "P388 [20]": {"system": "P388", "experiment": "Activity against P388 lymphocytic leukemia in BDFR-1 mice measured as percent increase in lifespan (% ILS) relative to controls after intraperitoneal administration of 2.5 mg/kg", "format": "functional", "conditions": "Mus musculus, P388, ip"}, "P388 [21]": {"system": "P388", "experiment": "Activity against P388 lymphocytic leukemia in BDFR-1 mice measured as percent increase in lifespan (% ILS) relative to controls after intraperitoneal administration of 80 mg/kg; Toxic", "format": "functional, organism-based", "parameters": "dose 80 mg/kg", "conditions": "Mus musculus, at 80 mg/kg"}, "P388 [22]": {"system": "P388", "experiment": "Activity against P388 lymphocytic leukemia in BDFR-1 mice measured as median survival time (MST) after intraperitoneal administration of 2.5 mg/kg", "format": "functional, Mus musculus"}},
  "data": [
    {"smiles": "Cc1c2ccncc2c(C)c2c1[nH]c1ccccc12", "note": "[ELLIPTECINE]", "values": [
      {"measurement": "MST", "setting": "P388 [1]", "value": 13},
      {"measurement": "Incorporation", "setting": "HeLa [2]", "value": 8, "unit": "%"},
      {"measurement": "ILS at 5 mg/kg", "setting": "P388 [3]", "value": 20, "unit": "%"},
      {"measurement": "Incorporation", "setting": "HeLa [4]", "value": 65, "unit": "%"},
      {"measurement": "Incorporation", "setting": "HeLa [5]", "value": 56, "unit": "%"},
      {"measurement": "Incorporation", "setting": "HeLa [6]", "value": 47, "unit": "%"},
      {"measurement": "MST", "setting": "P388 [7]", "value": 12},
      {"measurement": "MST", "setting": "P388 [8]", "value": 13},
      {"measurement": "Incorporation", "setting": "HeLa [9]", "value": 25, "unit": "%"},
      {"measurement": "ILS at 10 mg/kg", "setting": "P388 [10]", "value": 30, "unit": "%"},
      {"measurement": "ILS at 20 mg/kg", "setting": "P388 [11]", "value": 30, "unit": "%"},
      {"measurement": "MST", "setting": "P388 [12]", "value": 16},
      {"measurement": "ILS at 40 mg/kg", "setting": "P388 [13]", "value": 60, "unit": "%"},
      {"measurement": "Incorporation", "setting": "HeLa [14]", "value": 78, "unit": "%"}
    ]},
    {"smiles": "Cc1c2cnccc2c(CO)c2[nH]c3ccccc3c12", "values": [
      {"measurement": "ILS at 80 mg/kg", "setting": "P388 [15]", "value": 80, "unit": "%"},
      {"measurement": "MST", "setting": "P388 [1]", "value": 14.5},
      {"measurement": "Incorporation", "setting": "HeLa [16]", "value": 52, "unit": "%"},
      {"measurement": "Incorporation", "setting": "HeLa [17]", "value": 67, "unit": "%"},
      {"measurement": "Incorporation", "setting": "HeLa [2]", "value": 22, "unit": "%"},
      {"measurement": "ILS at 5 mg/kg", "setting": "P388 [3]", "value": 30, "unit": "%"},
      {"measurement": "Incorporation", "setting": "HeLa [18]", "value": 88, "unit": "%"},
      {"measurement": "MST", "setting": "P388 [7]", "value": 13},
      {"measurement": "MST", "setting": "P388 [8]", "value": 16.5},
      {"measurement": "ILS at 10 mg/kg", "setting": "P388 [10]", "value": 45, "unit": "%"},
      {"measurement": "ILS at 20 mg/kg", "setting": "P388 [11]", "value": 65, "unit": "%"},
      {"measurement": "MST", "setting": "P388 [12]", "value": 16.5},
      {"measurement": "MST", "setting": "P388 [19]", "value": 18},
      {"measurement": "ILS at 40 mg/kg", "setting": "P388 [13]", "value": 65, "unit": "%"}
    ]},
    {"smiles": "CNC(=O)OCc1c2ccncc2c(C)c2c1[nH]c1ccccc12", "values": [
      {"measurement": "ILS at 2.5 mg/kg", "setting": "P388 [20]", "value": 80, "unit": "%"},
      {"measurement": "MST", "setting": "P388 [1]", "value": 21},
      {"measurement": "Incorporation", "setting": "HeLa [16]", "value": 3, "unit": "%"},
      {"measurement": "Incorporation", "setting": "HeLa [17]", "value": 59, "unit": "%"},
      {"measurement": "Incorporation", "setting": "HeLa [2]", "value": 27, "unit": "%"},
      {"measurement": "ILS at 5 mg/kg", "setting": "P388 [3]", "value": 60, "unit": "%"},
      {"measurement": "Incorporation", "setting": "HeLa [18]", "value": 18, "unit": "%"},
      {"measurement": "MST", "setting": "P388 [7]", "value": 16},
      {"measurement": "MST", "setting": "P388 [8]", "value": 15},
      {"measurement": "ILS at 10 mg/kg", "setting": "P388 [10]", "value": 110, "unit": "%"},
      {"measurement": "ILS", "setting": "P388 [21]", "value": "Toxic"},
      {"measurement": "MST", "setting": "P388 [22]", "value": 18},
      {"measurement": "ILS at 20 mg/kg", "setting": "P388 [11]", "value": 50, "unit": "%"},
      {"measurement": "MST", "setting": "P388 [12]", "value": 10},
      {"measurement": "MST", "setting": "P388 [19]", "value": 6},
      {"measurement": "ILS at 40 mg/kg", "setting": "P388 [13]", "value": 0, "unit": "%"}
    ]}
  ]
}
